Measurements published in EP4722228A1, “NEW COMPOUND TARGETING MUSK AND USE THEREOF” (The University of Tokyo, priority 2023, dated 2024).
Numbered stars: 1 amine (or outer) side, 2 acyl side, 3 side chain; on linkers, the order of the positions; unused ones are H or OH. Bridge positions count the residues as written; N and C are the ends. Square brackets hold non-standard residues; d marks the D form. Peptide text beside a SMILES is read from it. I, II: the chains in the order shown. * marks the point of attachment. X1 = O=C(CCN1C(=O)CC([*:1])C1=O)NCCOCCOCCOCCOCCOCCOCCOCCOCCOCCOCCOCCNC(=O)CCN1C(=O)CC([*:2])C1=O; X2 = O=C(CCN1C(=O)CC([*:1])C1=O)NCCCOCCOCCOCCCNC(=O)CCN1C(=O)CC([*:2])C1=O; ClAc = O=C(CCl)*

molecular target: T1, human MuSK (Homo sapiens, UniProt O15146); experiment: SPR binding activity test to human MuSK (Biacore); settings: 25°C, Fc-tagged human MuSK immobilized, monomer peptides, read-out: Binding activity (KD)
T1 construct: DNA corresponding to the extracellular portion (amino acids 1-493) was amplified by a PCR method; made in house; host or cells: Expi293F cells
T1 sequence (O15146 24-493): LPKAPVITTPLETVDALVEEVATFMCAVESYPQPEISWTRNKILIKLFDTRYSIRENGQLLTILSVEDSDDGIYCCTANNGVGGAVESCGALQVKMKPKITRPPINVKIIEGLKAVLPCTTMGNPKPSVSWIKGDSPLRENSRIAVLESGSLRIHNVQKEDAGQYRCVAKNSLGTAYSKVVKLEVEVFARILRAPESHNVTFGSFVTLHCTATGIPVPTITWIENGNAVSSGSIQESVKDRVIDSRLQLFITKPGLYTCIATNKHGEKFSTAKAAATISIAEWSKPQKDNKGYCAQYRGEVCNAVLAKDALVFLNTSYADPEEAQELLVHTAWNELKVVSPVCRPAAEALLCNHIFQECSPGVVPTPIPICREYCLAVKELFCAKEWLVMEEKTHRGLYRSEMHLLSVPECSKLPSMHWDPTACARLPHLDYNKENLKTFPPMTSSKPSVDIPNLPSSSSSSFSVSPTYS
Procedure: The human MuSK protein (extracellular portion) was prepared as a recombinant protein as follows. Using a Flexi clone (FXC31275, Promega Corporation) encoding Human MuSK isoform 1 precursor (NCBI Reference Sequence: NP_005583.1) as a template, DNA corresponding to the extracellular portion (amino acids 1-493) was amplified by a PCR method. XhoI and EcoRI restriction enzyme recognition sequences were added to both the 5' and 3' ends of the amplified DNA sequence, and these were used for insertion into the multiple cloning site of a pCAG-Neo hIgG1-Fc plasmid (Fujifilm Wako Pure Chemical Corporation). This plasmid (pCAG-Neo hMuSK-Fc) enables expression of a chimeric protein of the secretory human MuSK extracellular portion and human IgG1 Fc (hMuSK-Fc; molecular weight of approximately 200 kDa) in animal cells. In practice, ExpiFectamine 293 reagent (Invitrogen) was used to transfect the pCAG-Neo hMuSK-Fc plasmid into Expi293F cells (Invitrogen), and shaking culture was carried out (for 6 days) in an incubator containing 8% CO2. Next, the culture supernatant was collected, centrifuged, and sterilized by filtration through a 0.22 µm filter. The obtained culture supernatant was subjected to Protein G purification, and finally, a purified hMuSK-Fc sample with 99.96% purity (AKTA-FPLC analysis) was obtained.
The strength of binding between MuSK and the cyclic peptides was evaluated by quantitatively measuring the binding kinetics (binding affinity (dissociation constant) KD) of the cyclic peptides to MuSK immobilized on a sensor chip via an Fc tag, using surface plasmon resonance (SPR).
According to the standard immobilization protocol provided by the manufacturer, Fc-tagged human/mouse/rat MuSK was immobilized on a Protein G chip or a Protein A chip (Cytiva). A running buffer for the monomer/dimer peptides contained 0.010 M phosphate, 0.14 M NaCl, 0.0027 M KCl, 0.05% (v/v) Tween 20, and 0.1% (v/v) DMSO. A running buffer for the monomer/dimer U-bodies contained 0.010 M phosphate, 0.14 M NaCl, 0.0027 M KCl, and 0.05% (v/v) Tween 20. A series of concentrations of each monomer peptide, dimer peptide, monomer U-body, and dimer U-body was injected as analytes. A 1:1 binding fitting analysis was applied using Biacore evaluation software, and ka, kd, and KD values were determined.
Fc-tagged human MuSK was prepared according to the procedure described in Example 1(1). In addition, Fc-tagged mouse MuSK was used by expressing a nucleotide sequence encoding the Fc-tagged mouse MuSK extracellular domain (SEQ ID NO: 34). In addition, Fc-tagged rat MuSK was used as a chimeric protein of rat MuSK and an Fc protein, namely, Recombinant Rat MuSK Fc Chimera Protein (catalog number: 9847-MK-050, R&D Systems).
The affinity of the U-bodies and their complexes obtained as described above for MuSK of human, rat, and mouse was evaluated (binding activity test). The test was carried out according to the procedure described in Example 1(3). However, for the complexes of U-bodies, surface plasmon resonance (SPR) analysis was carried out using a Biacore 8K (Cytiva).

Compound | Kd [nM]
CC(C)C[C@H](NC(=O)[C@H](CCC(N)=O)NC(=O)[C@H](CCCNC(=N)N)NC(=O)[C@H](CCC(N)=O)NC(=O)[C@H](CCCNC(=N)N)NC(=O)[C@H](CCC(N)=O)NC(=O)[C@H](CCCNC(=N)N)NC(=O)[C@H](CC(C)C)NC(=O)[C@H](Cc1ccccc1)NC(=O)[C@H](CC(C)C)NC(=O)[C@@H](NC(=O)[C@H](Cc1ccccc1)NC(=O)[C@H](CO)NC(=O)[C@H](CCC(=O)O)NC(=O)[C@@H]1CCCN1C(=O)[C@H](Cc1c[nH]c2ccccc12)NC(=O)[C@H](CO)NC(=O)[C@H](Cc1ccccc1)NC(=O)[C@H](CCC(=O)O)NC(=O)[C@@H]1CCCN1C(=O)[C@H](CC(C)C)NC(=O)[C@@H](Cc1ccc(O)cc1)NC(=O)CCl)C(C)C)C(=O)NCC(=O)N[C@@H](CCCNC(=N)N)C(=O)NCC(=O)N[C@@H](C)C(=O)N[C@@H](CCC(=O)O)C(N)=O [MuSK1] (ClAc-[dY]LPEFSWPESFVLFLRQRQRQLGRGAE-NH2) | 2.2
CC(=O)N[C@H](Cc1ccc(O)cc1)C(=O)N[C@@H](CC(C)C)C(=O)N1CCC[C@H]1C(=O)N[C@@H](CCC(=O)O)C(=O)N[C@@H](Cc1ccccc1)C(=O)N[C@@H](CO)C(=O)N[C@@H](Cc1c[nH]c2ccccc12)C(=O)N1CCC[C@H]1C(=O)N[C@@H](CCC(=O)O)C(=O)N[C@@H](CO)C(=O)N[C@@H](Cc1ccccc1)C(=O)N[C@H](C(=O)N[C@@H](CC(C)C)C(=O)N[C@@H](Cc1ccccc1)C(=O)N[C@@H](CC(C)C)C(=O)N[C@@H](CCCNC(=N)N)C(=O)N[C@@H](CCC(N)=O)C(=O)N[C@@H](CCCNC(=N)N)C(=O)N[C@@H](CCC(N)=O)C(=O)N[C@@H](CCCNC(=N)N)C(=O)N[C@@H](CCC(N)=O)C(=O)N[C@@H](CC(C)C)C(=O)NCC(=O)N[C@@H](CCCNC(=N)N)C(=O)NCC(=O)N[C@@H](C)C(=O)N[C@@H](CCC(=O)O)C(N)=O)C(C)C [MuSK1Ac] (Ac-[dY]LPEFSWPESFVLFLRQRQRQLGRGAE-NH2) | 1.6

same assay, conditions: human MuSK, peptide homodimers

Compound | koff [s⁻¹] | kon [M⁻¹ s⁻¹]
I: Ac-[dY]LPEFSWPESFVLFLRQRQRQLGRGAEC-NH2 / II: Ac-[dY]LPEFSWPESFVLFLRQRQRQLGRGAEC-NH2 (linker I:28-II:28 via X2) [MuSK1Ac Term PEG3 dimer] | 0.0012 | 200000
CC(C)C[C@@H]1NC(=O)[C@H](CC(C)C)NC(=O)[C@H](CO)NC(=O)[C@H](C(C)C)NC(=O)[C@H](C(C)C)NC(=O)[C@H](CC(N)=O)NC(=O)[C@H]([C@@H](C)O)NC(=O)[C@@H]2CCCN2C(=O)[C@H](Cc2ccccc2)NC(=O)[C@@H](Cc2ccc(O)cc2)NC(=O)CSC[C@@H](C(=O)N[C@@H](CSC2CC(=O)N(CCC(=O)NCCCOCCOCCOCCCNC(=O)CCN3C(=O)CC(SC[C@H](NC(=O)[C@@H]4CSCC(=O)N[C@H](Cc5ccc(O)cc5)C(=O)N[C@@H](Cc5ccccc5)C(=O)N5CCC[C@H]5C(=O)N[C@@H]([C@@H](C)O)C(=O)N[C@@H](CC(N)=O)C(=O)N[C@@H](C(C)C)C(=O)N[C@@H](C(C)C)C(=O)N[C@@H](CO)C(=O)N[C@@H](CC(C)C)C(=O)N[C@@H](CC(C)C)C(=O)N[C@@H](CCCCN)C(=O)N[C@@H](CO)C(=O)N4)C(N)=O)C3=O)C2=O)C(N)=O)NC(=O)[C@H](CO)NC(=O)[C@H](CCCCN)NC1=O (some centres unmarked) [MuSK4 PEG3 dimer] (I: {CH2CO}-[dY]FPTNVVSLLKSCC-NH2 / II: {CH2CO}-[dY]FPTNVVSLLKSCC-NH2; linker I:14-II:14 via X2; thioether I:N-I:13, II:N-II:13) | 0.0044 | 650000
I: Ac-C[dY]LPEFSWPESFVLFLRQRQRQLGRGAE-NH2 / II: Ac-C[dY]LPEFSWPESFVLFLRQRQRQLGRGAE-NH2 (linker I:1-II:1 via X2) [MuSK1Ac PEG3 dimer] | 0.0013 | 300000
I: Ac-[dY]LPEFSWPESFVLFLRQRQRQLGRGAEC-NH2 / II: Ac-[dY]LPEFSWPESFVLFLRQRQRQLGRGAEC-NH2 (linker I:28-II:28 via X1) [MuSK1Ac Term PEG11 dimer] | 0.0018 | 520000
CC(C)C[C@@H]1NC(=O)[C@H](CC(C)C)NC(=O)[C@H](CO)NC(=O)[C@H](C(C)C)NC(=O)[C@H](C(C)C)NC(=O)[C@H](CC(N)=O)NC(=O)[C@H]([C@@H](C)O)NC(=O)[C@@H]2CCCN2C(=O)[C@H](Cc2ccccc2)NC(=O)[C@@H](Cc2ccc(O)cc2)NC(=O)CSC[C@@H](C(=O)N[C@@H](CSC2CC(=O)N(CCC(=O)NCCOCCOCCOCCOCCOCCOCCOCCOCCOCCOCCOCCNC(=O)CCN3C(=O)CC(SC[C@H](NC(=O)[C@@H]4CSCC(=O)N[C@H](Cc5ccc(O)cc5)C(=O)N[C@@H](Cc5ccccc5)C(=O)N5CCC[C@H]5C(=O)N[C@@H]([C@@H](C)O)C(=O)N[C@@H](CC(N)=O)C(=O)N[C@@H](C(C)C)C(=O)N[C@@H](C(C)C)C(=O)N[C@@H](CO)C(=O)N[C@@H](CC(C)C)C(=O)N[C@@H](CC(C)C)C(=O)N[C@@H](CCCCN)C(=O)N[C@@H](CO)C(=O)N4)C(N)=O)C3=O)C2=O)C(N)=O)NC(=O)[C@H](CO)NC(=O)[C@H](CCCCN)NC1=O (some centres unmarked) [MuSK4 PEG11 dimer] (I: {CH2CO}-[dY]FPTNVVSLLKSCC-NH2 / II: {CH2CO}-[dY]FPTNVVSLLKSCC-NH2; linker I:14-II:14 via X1; thioether I:N-I:13, II:N-II:13) | 0.0056 | 810000
I: Ac-C[dY]LPEFSWPESFVLFLRQRQRQLGRGAE-NH2 / II: Ac-C[dY]LPEFSWPESFVLFLRQRQRQLGRGAE-NH2 (linker I:1-II:1 via X1) [MuSK1Ac PEG11 dimer] | 0.001 | 660000
CC[C@H](C)[C@@H]1NC(=O)[C@H](CC(N)=O)NC(=O)[C@H](C(C)C)NC(=O)[C@H](Cc2ccc(O)cc2)NC(=O)CNC(=O)[C@@H]2CCCN2C(=O)[C@H](CCC(N)=O)NC(=O)[C@H](CC(C)C)NC(=O)[C@H](Cc2ccc(O)cc2)NC(=O)[C@H](Cc2c[nH]c3ccccc23)NC(=O)[C@@H](Cc2ccc(O)cc2)NC(=O)CSC[C@@H](C(=O)N[C@@H](CSC2CC(=O)N(CCC(=O)NCCCOCCOCCOCCCNC(=O)CCN3C(=O)CC(SC[C@H](NC(=O)[C@@H]4CSCC(=O)N[C@H](Cc5ccc(O)cc5)C(=O)N[C@@H](Cc5c[nH]c6ccccc56)C(=O)N[C@@H](Cc5ccc(O)cc5)C(=O)N[C@@H](CC(C)C)C(=O)N[C@@H](CCC(N)=O)C(=O)N5CCC[C@H]5C(=O)NCC(=O)N[C@@H](Cc5ccc(O)cc5)C(=O)N[C@@H](C(C)C)C(=O)N[C@@H](CC(N)=O)C(=O)N[C@@H]([C@@H](C)CC)C(=O)N[C@@H](C(C)C)C(=O)N[C@@H]([C@@H](C)O)C(=O)N[C@@H](CO)C(=O)N[C@@H](Cc5ccc(O)cc5)C(=O)N[C@@H](Cc5c[nH]cn5)C(=O)N4)C(N)=O)C3=O)C2=O)C(N)=O)NC(=O)[C@H](Cc2c[nH]cn2)NC(=O)[C@H](Cc2ccc(O)cc2)NC(=O)[C@H](CO)NC(=O)[C@H]([C@@H](C)O)NC(=O)[C@H](C(C)C)NC1=O (some centres unmarked) [MuSK9 PEG3 dimer] (I: {CH2CO}-[dY]WYLQPGYVNIVTSYHCC-NH2 / II: {CH2CO}-[dY]WYLQPGYVNIVTSYHCC-NH2; linker I:18-II:18 via X2; thioether I:N-I:17, II:N-II:17) | 0.0017 | 780000

same assay, conditions: human MuSK, peptide homodimers, read-out: Kd

Compound | Kd [nM]
CC(C)C[C@@H]1NC(=O)[C@H](CC(C)C)NC(=O)[C@H](CO)NC(=O)[C@H](C(C)C)NC(=O)[C@H](C(C)C)NC(=O)[C@H](CC(N)=O)NC(=O)[C@H]([C@@H](C)O)NC(=O)[C@@H]2CCCN2C(=O)[C@H](Cc2ccccc2)NC(=O)[C@@H](Cc2ccc(O)cc2)NC(=O)CSC[C@@H](C(=O)N[C@@H](CSC2CC(=O)N(CCC(=O)NCCOCCOCCOCCOCCOCCOCCOCCOCCOCCOCCOCCNC(=O)CCN3C(=O)CC(SC[C@H](NC(=O)[C@@H]4CSCC(=O)N[C@H](Cc5ccc(O)cc5)C(=O)N[C@@H](Cc5ccccc5)C(=O)N5CCC[C@H]5C(=O)N[C@@H]([C@@H](C)O)C(=O)N[C@@H](CC(N)=O)C(=O)N[C@@H](C(C)C)C(=O)N[C@@H](C(C)C)C(=O)N[C@@H](CO)C(=O)N[C@@H](CC(C)C)C(=O)N[C@@H](CC(C)C)C(=O)N[C@@H](CCCCN)C(=O)N[C@@H](CO)C(=O)N4)C(N)=O)C3=O)C2=O)C(N)=O)NC(=O)[C@H](CO)NC(=O)[C@H](CCCCN)NC1=O (some centres unmarked) [MuSK4 PEG11 dimer] (I: {CH2CO}-[dY]FPTNVVSLLKSCC-NH2 / II: {CH2CO}-[dY]FPTNVVSLLKSCC-NH2; linker I:14-II:14 via X1; thioether I:N-I:13, II:N-II:13) | 6.9
